{"source": "paper PMC12066977", "about": "“Alkyl Tail Variation on Chalcone‐Based Quaternary Pyridinium Salts as Rule‐of‐Thumb for Antimicrobial Activity” (Archiv Der Pharmazie, 2025)", "key": {"[1]": {"experiment": "Cell viability and proliferation assay (WST8/CCK-8)", "format": "cell-based", "conditions": "African green monkey, Vero cells (ATCC CCL-81), 48 h treatment, CCK-8; read-out: CC50 [95% CI] Vero cells", "experimental": "Vero cell line (ATCC CCL‐81) was selected as a model system to investigate the overall effect of chalcones on non‐malignant mammalian cells. […] For experiments, cells were seeded into 96‐well plates at 10^4 cells/well and incubated at 37°C for 24 h. Following washes with PBS, the cell monolayer was incubated with 100 µL of medium containing the twofold serial dilutions of the compounds. Both untreated cells and cells incubated with medium containing solvent dilutions were included in each experiment as controls. The cell viability was assessed by a WST8‐based assay according to the manufacturer's instructions (CCK‐8, Cell Counting Kit‐8, Dojindo Molecular Technologies, Rockville, MD, USA). After 48 h of incubation, culture medium was removed from each well, the monolayer was washed with PBS, and 100 µL of fresh medium containing 10 µL of CCK‐8 solution was added. Following a 2 h incubation at 37°C, the OD450nm was read, and data were expressed as the percentage of cell viability relative to the untreated controls. The CC50 was obtained on the corresponding dose–response curves generated as previously reported for IC50 values. Experiments were carried out in triplicate in three biological replicates."}, "C. albicans biofilm": {"system": "C. albicans biofilm", "experiment": "Inhibition of biofilm formation (crystal violet staining)", "format": "cell-based, Candida albicans", "conditions": "3.125 µM; 24 h, CV staining", "experimental": "The ability of some selected compounds to inhibit biofilm formation was assessed by established protocols with minor modifications. In short, exponential cultures of S. aureus, E. coli, and C. albicans grown in Tryptic Soy broth (TSB, Sigma‐Aldrich, St. Louis, MO, USA) were adjusted to a final density of 10^5 CFU/mL. Aliquots of 100 µL of the microbial cultures were transferred to a 96‐well flat‐bottom polystyrene microplate, and then incubated at 37°C for 90 min to promote bacterial adhesion. Thereafter, wells were slowly rinsed with PBS to remove nonattached cells, and 100 µL of TSB supplemented with 1% glucose containing the twofold serial dilutions of the compounds was added. After incubation at 37°C for 24 h, the free‐floating cells were removed, and the biofilms were carefully washed with PBS. The biomass was quantified by a standardized crystal violet (CV) staining. Briefly, 100 µL of CV solution (0.1% in water) was added to each well containing a completely air‐dried biofilm, and incubated for 30 min at 37°C. […] Finally, the colored supernatants were transferred to a new microplate, and the OD550nm was measured. The percentage inhibition of biofilm formation in the different experimental conditions was calculated relative to the biofilm mass formed in the absence of compounds (positive control)."}, "[2]": {"system": "human red blood cells (hRBCs)", "experiment": "Hemolytic activity assay", "format": "cell-based", "conditions": "25 µM, 90 min, 37°C", "experimental": "The hemolytic activity of some selected compounds was evaluated as the amount of hemoglobin released by the disruption of human red blood cells (hRBCs). For the experiments, fresh hRBCs were collected by centrifugation at 1500g for 10 min, washed three times with PBS, and resuspended to a final concentration of 4% w/v hRBCs in PBS. Then, 100 µL of hRBCs suspension and an equal volume of the twofold dilutions of the antimicrobial peptides were mixed in a 96‐well plate and incubated for 90 min at 37°C. After centrifugation at 1000g for 5 min, the supernatants were transferred into a clear 96‐well plate, and OD405nm was read. Untreated hRBCs (incubated with PBS) and hRBCs incubated with 1% Triton X‐100 were employed as negative and positive controls, respectively. The hemolysis percentage was calculated as [OD405nm (sample) − OD4_05nm (negative control)]/[OD405nm (positive control) − OD405nm (negative control)] × 100. Minimal hemolytic concentrations (MHCs) were defined as the compound concentration causing 10% hemolysis. Three independent experiments were performed in triplicate."}, "E. coli ATCC 25922": {"system": "E. coli ATCC 25922", "experiment": "Broth microdilution antimicrobial assay (MIC, IC50)", "format": "cell-based", "conditions": "Escherichia coli, 24 h", "experimental": "(§1) Reference strains of Staphylococcus aureus (ATCC 25923), Escherichia coli (ATCC 25922), and Candida albicans (ATCC 10231) were used in this study as microbial models. These strains were purchased from the American Type Culture Collection (ATCC); bacterial cultures were routinely grown on 5% blood agar plate, while fungal cultures on Sabouraud Dextrose Agar (Biolife […]., Milan, Italy). […] In short, microbial inocula were prepared at 0.5 McFarland in PBS and, subsequently, bacterial suspensions were diluted 1:200 in Mueller-Hinton broth (Sigma-Aldrich, St. Louis, MO, USA), while fungal inoculum was diluted 1:20 in RPMI-1640 medium (Gibco®, ThermoFisher Scientific Inc., Waltham, MA, USA), containing glucose 2%, 0.3% levo-glutamine buffered to pH 7.0 with 0.165 M 3-(N-morpholino) propanesulfonic acid (MOPS). A total of 100 μL of these microbial suspensions was introduced into a 96-well microplate and incubated with 100 μL of the compounds, two-fold serially diluted in the range of 100-0.19 μM. Positive controls (microbial suspensions in regular media), negative controls (only compounds), and solvent controls (microbial suspensions incubated with DMSO dilutions) were included in the tests. The plate was incubated at 37°C for 24 h, and subsequently the optical density at 630 nm (OD630nm) was spectrophotometrically measured. Experiments were carried out in triplicate in three biological replicates. […] Statistical analysis was carried out by using GraphPad Prism version 9.4.1 for Windows (GraphPad Software, San Diego, California USA, www.graphpad.com). ^a MIC (Minimum Inhibitory Concentration) were determined in vitro by means of a standardized microdilution assay, in compliance with the Clinical and laboratory Standard Institute (CLSI) guidelines (30). Microbial suspensions were prepared at 0.5 McFarland in PBS, then diluted in the media and transferred in a 96 micro-well plate together with the serially 2-fold dilutions of the compounds. After 24h of incubation at 37°C, microbial growths were evaluated by measuring the Optical Density at 600 nm, then percentage values were obtained as relative to the positive controls (microbial suspensions in regular media)."}, "C. albicans ATCC 10231": {"system": "C. albicans ATCC 10231", "experiment": "Broth microdilution antimicrobial assay (MIC, IC50)", "format": "cell-based", "conditions": "Candida albicans, 24 h", "experimental": "as §1"}, "S. aureus ATCC 25923": {"system": "S. aureus ATCC 25923", "experiment": "Broth microdilution antimicrobial assay (MIC, IC50)", "format": "cell-based", "conditions": "Staphylococcus aureus", "experimental": "as §1"}}, "data": [{"smiles": "C#CCOc1ccc(C(=O)/C=C/c2ccc[n+](CCCCCCCCCCCCCC)c2)c(OCC#C)c1.[Br-]", "note": "[Compound 6, (E)‐3‐{3‐[2,4‐Bis(prop‐2‐yn‐1‐yloxy)phenyl]‐3‐oxoprop‐1‐en‐1‐yl}‐1‐tetradecylpyridin‐1‐ium bromide]", "values": [{"measurement": "CC50 at 48 h", "setting": "[1]", "value": 6.16, "unit": "µM"}, {"measurement": "reduction in C. albicans biofilm formation", "setting": "C. albicans biofilm", "value": 68.3, "unit": "%"}, {"measurement": "hemolytic activity", "setting": "[2]", "value": 88.7, "unit": "%"}, {"measurement": "IC50", "setting": "E. coli ATCC 25922; ATCC25922, 50% growth inhibition, read-out: IC50 [95% confidence interval] Escherichia coli", "value": 36.3, "unit": "µM"}, {"measurement": "MIC", "setting": "E. coli ATCC 25922; ATCC25922, broth microdilution, 37°C", "value": 50, "unit": "µM"}, {"measurement": "IC50", "setting": "C. albicans ATCC 10231; ATCC10231, 50% growth inhibition, read-out: IC50 [95% confidence interval] Candida albicans", "value": 1.32, "unit": "µM"}, {"measurement": "MIC", "setting": "C. albicans ATCC 10231; ATCC10231, broth microdilution, 37°C", "value": 1.56, "unit": "µM"}, {"measurement": "IC50", "setting": "S. aureus ATCC 25923; ATCC25923, 50% growth inhibition, 24 h, read-out: IC50 [95% confidence interval] Staphylococcus aureus", "value": 1.3, "unit": "µM"}, {"measurement": "MIC", "setting": "S. aureus ATCC 25923; ATCC25923, 24 h, broth microdilution, 37°C", "value": 3.12, "unit": "µM"}]}]}
